Laboratory results: ChEMBL document CHEMBL5360544, “Design, synthesis, and biological evaluation of diaryl heterocyclic derivatives targeting tubulin polymerization with potent anticancer activities” (Eur J Med Chem, 2023)
Values belong to the compound of their own block, whether it stands above or below them. Activity calls are given as the source filed them. The calls are words filed in the database; no cut-off is given here.

Legend:
HCT-116 [1] = assay: Antiproliferative activity against human HCT-116 cells incubated for 48 hrs by CCK-8 assay; type: functional, cell-based; settings: HCT-116, 48 h
HepG2 = assay: Antiproliferative activity against human HepG2 cells incubated for 48 hrs by CCK-8 assay; type: functional, cell-based; settings: HepG2, 48 h
SW480 = assay: Antiproliferative activity against human SW480 cells incubated for 48 hrs by CCK-8 assay; type: functional, cell-based; settings: SW480, 48 h
HeLa = assay: Antiproliferative activity against human HeLa cells incubated for 48 hrs by CCK-8 assay; type: functional, cell-based
MDA-MB-231 = assay: Antiproliferative activity against human MDA-MB-231 cells incubated for 48 hrs by CCK-8 assay; type: functional, cell-based; settings: MDA-MB-231, 48 h
[2] = Antiproliferative activity against human HEK293T cells incubated for 48 hrs by CCK-8 assay; type: toxicity, cell-based, HEK-293T
[3] = Metabolic stability in human liver microsomes assessed as half life preincubated for 2 hrs followed by NADPH regenerating system addition and measured upto 4 hrs by LC-MS method; type: ADME, Microsome; settings: time < 6 hrs
[4] = Metabolic stability in rat liver microsomes assessed as half life preincubated for 2 hrs followed by NADPH regenerating system addition and measured upto 4 hrs by LC-MS method; type: ADME, Microsome; settings: time < 6 hrs
HCT-116 [5] = assay: Antitumor activity against human HCT-116 cells xenografted in nude mouse assessed as reduction in tumor volume at 50 mg/kg, po administered for 20 days and measured every 2 days; type: functional; design: scale not given: the % may be the effect or the level left; settings: time 20 day
HCT-116 [6] = assay: Antitumor activity against human HCT-116 cells xenografted in nude mouse assessed as reduction in tumor weight at 50 mg/kg, po administered for 20 days and measured every 2 days; type: functional; design: scale not given: the % may be the effect or the level left; settings: time 20 day
[7] = Toxicity in mouse xenografted with human HCT-116 cells assessed as reduction in body weight at 50 mg/kg, po administered for 20 days and measured every 2 days; type: organism-based; settings: in vivo, 480 h, time 20 day
[8] = Toxicity in mouse xenografted with human HCT-116 cells assessed as reduction in liver damage at 50 mg/kg, po administered for 20 days and measured every 2 days by H and E staining based method; type: organism-based; settings: in vivo, 480 h, time 20 day
[9] = Toxicity in mouse xenografted with human HCT-116 cells assessed as reduction in kidney damage at 50 mg/kg, po administered for 20 days and measured every 2 days by H and E staining based method; type: organism-based; settings: in vivo, 480 h, time 20 day
HCT-116 [10] = assay: Inhibition of colony formation in human HCT-116 cells incubated with compound for 24 hrs followed by media replacement and measured after 10 days by crystal violet staining based assay; type: functional, cell-based; settings: dose 0.5-2 µM
HCT-116 [11] = assay: Inhibition of colony formation in human HCT-116 cells at 2 uM incubated with compound for 24 hrs followed by media replacement and measured after 10 days by crystal violet staining based assay; type: functional
Tubulin = Tubulin (Sus scrofa, UniProt P02554+P02550); assay: Inhibition of pig brain tubulin polymerization incubated for […] by spectrophotometric method; type: tissue-based
HCT-116 [12] = assay: Induction of cell cycle arrest in human HCT-116 cells assessed as increase in G2/M phase cells incubated for 48 hrs by PI staining based flow cytometry analysis; type: functional; settings: dose 0.5-2 µM
HCT-116 [13] = assay: Induction of apoptosis in human HCT-116 cells assessed as viable cells at 0.125 uM incubated for 24 hrs by Annexin V and PI staining based flow cytometry analysis (reference value: 99.63%); type: functional; settings: read-out: Activity
HCT-116 [14] = assay: Induction of apoptosis in human HCT-116 cells assessed as early apoptotic cells at 0.125 uM incubated for 24 hrs by Annexin V and PI staining based flow cytometry analysis (reference value: 0.26%); type: functional
HCT-116 [15] = assay: Induction of apoptosis in human HCT-116 cells assessed as late apoptotic cells at 0.125 uM incubated for 24 hrs by Annexin V and PI staining based flow cytometry analysis (reference value: 0.07%); type: functional
HCT-116 [16] = assay: Induction of apoptosis in human HCT-116 cells assessed as necrotic cells at 0.125 uM incubated for 24 hrs by Annexin V and PI staining based flow cytometry analysis (reference value: 0.04%); type: functional
HCT-116 [17] = assay: Induction of apoptosis in human HCT-116 cells assessed as viable cells at 0.5 uM incubated for 24 hrs by Annexin V and PI staining based flow cytometry analysis (reference value: 99.63%); type: functional; settings: read-out: Activity
HCT-116 [18] = assay: Induction of apoptosis in human HCT-116 cells assessed as early apoptotic cells at 0.5 uM incubated for 24 hrs by Annexin V and PI staining based flow cytometry analysis (reference value: 0.26%); type: functional
HCT-116 [19] = assay: Induction of apoptosis in human HCT-116 cells assessed as late apoptotic cells at 0.5 uM incubated for 24 hrs by Annexin V and PI staining based flow cytometry analysis (reference value: 0.07%); type: functional
HCT-116 [20] = assay: Induction of apoptosis in human HCT-116 cells assessed as necrotic cells at 0.5 uM incubated for 24 hrs by Annexin V and PI staining based flow cytometry analysis (reference value: 0.04%); type: functional
HCT-116 [21] = assay: Induction of apoptosis in human HCT-116 cells assessed as viable cells at 2 uM incubated for 24 hrs by Annexin V and PI staining based flow cytometry analysis (reference value: 99.63%); type: functional; settings: read-out: Activity
HCT-116 [22] = assay: Induction of apoptosis in human HCT-116 cells assessed as early apoptotic cells at 2 uM incubated for 24 hrs by Annexin V and PI staining based flow cytometry analysis (reference value: 0.26%); type: functional
HCT-116 [23] = assay: Induction of apoptosis in human HCT-116 cells assessed as late apoptotic cells at 2 uM incubated for 24 hrs by Annexin V and PI staining based flow cytometry analysis (reference value: 0.07%); type: functional
HCT-116 [24] = assay: Induction of apoptosis in human HCT-116 cells assessed as necrotic cells at 2 uM incubated for 24 hrs by Annexin V and PI staining based flow cytometry analysis (reference value: 0.04%); type: functional
Tubulin (Homo sapiens) [25] = target: T1, Tubulin (Homo sapiens) (UniProt P68371+Q9H4B7+P0DPH7+P68366+Q13509+Q71U36+P04350+Q3ZCM7+P07437+P68363+Q9BQE3+Q6PEY2+Q13885+Q9BVA1+Q9BUF5); assay: Induction of microtubule depolymerization in human HCT-116 cells assessed as appearance of short microtubules at 40 nM by immunofluorescent assay; type: cell-based
Tubulin (Homo sapiens) [26] = target: T1, Tubulin (Homo sapiens); assay: Induction of microtubule depolymerization in human HCT-116 cells assessed as appearance of short microtubules at 160 nM by immunofluorescent assay; type: cell-based
Tubulin (Homo sapiens) [27] = target: T1, Tubulin (Homo sapiens); assay: Induction of microtubule depolymerization in human HCT-116 cells assessed as appearance of microtubules wrapped around nucleus at 40 nM by immunofluorescent assay; type: cell-based
Tubulin (Homo sapiens) [28] = target: T1, Tubulin (Homo sapiens); assay: Induction of microtubule depolymerization in human HCT-116 cells assessed as appearance of microtubules wrapped around nucleus at 160 nM by immunofluorescent assay; type: cell-based
HCT-116 [29] = assay: Antitumor activity against human HCT-116 cells xenografted in nude mouse assessed as reduction in tumor volume at 100 mg/kg, po administered for 20 days and measured every 2 days; type: functional, organism-based; settings: time 20.0 day
HCT-116 [30] = assay: Antitumor activity against human HCT-116 cells xenografted in nude mouse assessed as reduction in tumor weight at 100 mg/kg, po administered for 20 days and measured every 2 days; type: functional, organism-based; settings: time 20.0 day
[31] = Toxicity in mouse xenografted with human HCT-116 cells assessed as reduction in body weight at 50 to 100 mg/kg, po administered for 20 days and measured every 2 days; type: organism-based; settings: in vivo, 480 h, dose 50-100 mg/kg, time 20 day
[32] = Toxicity in mouse xenografted with human HCT-116 cells assessed as reduction in liver damage at 50 to 100 mg/kg, po administered for 20 days and measured every 2 days by H and E staining based method; type: organism-based; settings: in vivo, 480 h, dose 50-100 mg/kg, time 20 day
[33] = Toxicity in mouse xenografted with human HCT-116 cells assessed as reduction in kidney damage at 50 to 100 mg/kg, po administered for 20 days and measured every 2 days by H and E staining based method; type: organism-based; settings: in vivo, 480 h, dose 50-100 mg/kg, time 20 day

SMILES: COc1ccc(/C=C\c2cc(OC)c(OC)c(OC)c2)cc1O [COMBRETASTATIN A4]
- IC50 (HCT-116 [1]): 2320 nM
- IC50 (HepG2): 1360 nM
- IC50 (SW480): 40000 nM
- IC50 (HeLa): 630 nM
- IC50 (MDA-MB-231): 2130 nM
- IC50 at 48 h [2]: > 80000 nM
- half-life [3]: 9.5 min
- half-life [4]: 2.3 min
- Activity (HCT-116 [5]): 31.4%
- Activity (HCT-116 [6]): 28.8%
- Activity [7]: Non-Toxic
- Activity [8]: Non-Toxic
- Activity [9]: Non-Toxic

- IC50 (HCT-116 [1]): 2650 nM
- IC50 (HepG2): 1540 nM
- IC50 (SW480): 37500 nM
- IC50 (HeLa): 24600 nM
- IC50 (MDA-MB-231): 11400 nM
- IC50 (Tubulin): 8400 nM
- Activity (Tubulin (Homo sapiens) [25]): Active
- Activity (Tubulin (Homo sapiens) [26]): Active
- Activity (Tubulin (Homo sapiens) [27]): Active
- Activity (Tubulin (Homo sapiens) [28]): Active
- half-life [3]: 106 min
- half-life [4]: 6.9 min
SMILES: COc1cc(-c2ccnn2-c2ccc(N)cc2)cc(OC)c1OC
- IC50 at 48 h [2]: > 80000 nM
- inhibition (HCT-116 [10]): Dose-Dependent Effect
- inhibition at 2 µM (HCT-116 [11]): 100%
- Activity (HCT-116 [12]): Dose-Dependent Effect
- viability at 0.125 µM (HCT-116 [13]): 2.2%
- Activity (HCT-116 [14]): 46.19%
- Activity (HCT-116 [15]): 49.45%
- Activity (HCT-116 [16]): 2.17%
- viability at 0.5 µM (HCT-116 [17]): 4.92%
- Activity (HCT-116 [18]): 61.42%
- Activity (HCT-116 [19]): 28.79%
- Activity (HCT-116 [20]): 4.87%
- viability at 2 µM (HCT-116 [21]): 3.22%
- Activity (HCT-116 [22]): 75.68%
- Activity (HCT-116 [23]): 19.38%
- Activity (HCT-116 [24]): 1.72%
- Activity (HCT-116 [5]): 44.1%
- Activity (HCT-116 [6]): 27%
- Activity (HCT-116 [29]): inactive
- Activity (HCT-116 [30]): inactive
- Activity [31]: Non-Toxic
- Activity [32]: Non-Toxic
- Activity [33]: Non-Toxic
